# According to patent US10358449B2, “Xanthine derivative” (priority 2015, dated 2019):
# pIC50: −log10 of the molar value. Like-named read-outs stand apart in the source and are kept apart here. Marks after values point to notes of the source that are not given here.
# Assays:
# [1] = molecular target: humanized recombinant DPP-IV (Homo sapiens (Human), UniProt P27487); experiment: DPP-IV activity inhibition test in vitro (DPPIV-Glo luminescence); type: biochemical
# Description: (1) DPP-IV Activity Inhibition Tests In Vitro
# DPP-IV could hydrolyze Gly-Pro-Aminoluciferin at room temperature to generate Aminoluciferin, which could produce “glow type” luminescent signals in a luciferase reaction system provided by a DPPIV-Glo™ protease test kit, and the strength of the luminescent signals was in direct proportion to the enzyme activity of DPP-IV.
# 2.1 humanized recombinant DPP-IV: SIGMA product, article number D3446-10UG.
# 2.2 DPPIV-Glo™ protease detection kit: Promega product, article number G8351.
# 3.2 Diluting dipeptidyl peptidase IV (Sigma) to 0.2 ng/ml solution with 10 mM Tris-HCl (pH 8.0), adding the samples to be detected in, per well 25 μl. […] Experimental Results
# [2] = molecular target: humanized recombinant DPP9 (Homo sapiens (Human), UniProt Q86TI2); experiment: Drug selectivity experiment in vitro, DPP9; type: biochemical
# humanized recombinant DPP9, sequence (Q86TI2 whole entry): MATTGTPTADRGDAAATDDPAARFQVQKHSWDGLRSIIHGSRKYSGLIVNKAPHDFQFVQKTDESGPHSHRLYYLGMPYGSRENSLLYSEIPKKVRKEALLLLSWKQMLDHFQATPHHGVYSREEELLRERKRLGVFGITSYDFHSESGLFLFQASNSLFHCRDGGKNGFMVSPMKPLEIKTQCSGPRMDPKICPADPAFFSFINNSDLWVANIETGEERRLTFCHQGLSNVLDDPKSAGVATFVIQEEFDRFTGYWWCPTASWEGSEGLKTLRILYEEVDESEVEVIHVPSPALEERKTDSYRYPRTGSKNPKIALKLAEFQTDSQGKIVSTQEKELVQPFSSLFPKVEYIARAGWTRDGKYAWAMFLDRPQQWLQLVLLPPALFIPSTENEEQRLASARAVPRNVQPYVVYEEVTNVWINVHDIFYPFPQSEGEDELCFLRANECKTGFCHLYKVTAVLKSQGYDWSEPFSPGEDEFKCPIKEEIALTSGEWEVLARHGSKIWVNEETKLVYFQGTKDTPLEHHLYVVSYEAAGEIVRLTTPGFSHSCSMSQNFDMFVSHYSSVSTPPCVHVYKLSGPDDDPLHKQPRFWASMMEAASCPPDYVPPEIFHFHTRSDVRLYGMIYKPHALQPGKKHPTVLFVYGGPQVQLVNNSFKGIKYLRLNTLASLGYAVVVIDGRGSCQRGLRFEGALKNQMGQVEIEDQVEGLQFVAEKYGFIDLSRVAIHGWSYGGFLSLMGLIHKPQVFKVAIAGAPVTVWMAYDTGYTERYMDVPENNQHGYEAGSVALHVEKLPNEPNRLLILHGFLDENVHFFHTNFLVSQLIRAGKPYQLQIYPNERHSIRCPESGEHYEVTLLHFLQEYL
# normal mice (C57BL/6J) = experiment: Oral glucose tolerance test of normal mice; type: in vivo, mouse; design: AUC0-120 min: unit not given beside the values
# Description: (§1) 2. Experimental method: normal mice, obese mice and diabetic mice were used for studying glucose tolerance tests Experimental process of OGTT (Oral Glucose Tolerance Test): fasting for 6 hours before the test begins, 60 min after drug administration, glucose was administrated by gavage (drug concentration 0.6 mg/ml, administration volume 5 ml/kg) (2 g/kg glucose was administrated to diabetic mice; 2 g/kg glucose was administrated to obese mice; and 5 g/kg glucose was administrated to normal mice), blood glucose values at 0 min, 15 min, 30 min, 45 min, 60 min and 120 min are respectively determined after glucose administration, […]
# [3] = tested on: diabetic mice (B6.BKS(D)-Leprdb/JNju); experiment: Glucose tolerance test of diabetic mice (Table 5); type: in vivo, mouse; design: AUC0-120 min: unit not given beside the values
# Description: as §1
# hERG potassium channel = hERG potassium channel (Homo sapiens (Human), UniProt Q12809); experiment: hERG toxicity, manual patch clamp in CHO cells stably transfected with hERG; type: cell-based
# hERG potassium channel, sequence (Q12809 whole entry): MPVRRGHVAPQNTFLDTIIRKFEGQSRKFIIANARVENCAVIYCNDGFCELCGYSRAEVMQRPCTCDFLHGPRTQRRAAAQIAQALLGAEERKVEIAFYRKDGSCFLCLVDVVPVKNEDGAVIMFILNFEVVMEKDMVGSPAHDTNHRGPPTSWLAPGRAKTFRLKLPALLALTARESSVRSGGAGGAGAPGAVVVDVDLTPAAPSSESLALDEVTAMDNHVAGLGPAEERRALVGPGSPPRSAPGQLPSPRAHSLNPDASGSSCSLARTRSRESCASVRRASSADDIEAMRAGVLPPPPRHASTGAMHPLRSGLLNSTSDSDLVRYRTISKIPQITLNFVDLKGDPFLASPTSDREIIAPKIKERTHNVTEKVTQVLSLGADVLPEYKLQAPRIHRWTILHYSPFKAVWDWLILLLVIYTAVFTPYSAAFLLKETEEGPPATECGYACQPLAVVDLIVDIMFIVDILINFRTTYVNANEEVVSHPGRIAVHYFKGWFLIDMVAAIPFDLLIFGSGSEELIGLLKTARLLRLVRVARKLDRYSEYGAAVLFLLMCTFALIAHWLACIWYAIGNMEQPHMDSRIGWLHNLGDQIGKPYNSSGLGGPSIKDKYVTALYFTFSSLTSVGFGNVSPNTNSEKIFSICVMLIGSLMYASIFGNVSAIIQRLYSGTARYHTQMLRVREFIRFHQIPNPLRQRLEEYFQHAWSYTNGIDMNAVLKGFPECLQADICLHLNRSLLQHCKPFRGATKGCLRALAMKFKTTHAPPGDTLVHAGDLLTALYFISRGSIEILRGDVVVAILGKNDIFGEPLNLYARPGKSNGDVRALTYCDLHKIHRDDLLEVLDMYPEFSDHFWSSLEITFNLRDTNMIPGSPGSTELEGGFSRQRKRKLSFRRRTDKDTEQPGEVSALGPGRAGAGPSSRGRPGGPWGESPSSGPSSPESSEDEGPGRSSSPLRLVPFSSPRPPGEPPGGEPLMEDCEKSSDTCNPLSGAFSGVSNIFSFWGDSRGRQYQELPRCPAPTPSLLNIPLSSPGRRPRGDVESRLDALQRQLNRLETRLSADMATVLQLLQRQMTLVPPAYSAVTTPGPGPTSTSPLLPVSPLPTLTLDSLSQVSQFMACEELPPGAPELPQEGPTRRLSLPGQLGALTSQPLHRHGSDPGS
# Description: 1. Test method: testing the effect of the compounds on hERG […] in stable CHO cell lines transfected hERG […] by manual patch clamp method, and then calculating IC50 value of the compounds to hERG. Conventional Patch-Clamp was a technology that has been disclosed, was the most important technical means for studying ion channels and was universally recognized as the “gold standard” for ion channel researches and was the most accurate method for measuring ion channel. It was applicable to study the action mechanism of the effect of compound and the ion channel, and also could be used for toxicity evaluation and structure optimization of candidate drugs in the process of new drugs. In cardiomyocytes, human Ether-a-go-go Related Gene (hERG) coded potassium channel mediates a delayed rectification potassium current (IKr), IKr inhibition was the most important mechanism leading to QT interval prolongation by drugs. hERG could be inhibited by compounds of diversified structures, due to its specific molecular structure. […] The effects of compounds on hERG could be tested and relevant IC50 could be determined by conventional patch-clamp, using CHO cell lines that had been stably transfected hERG potassium channel.
# humanized recombinant DPP-IV, sequence (P27487 whole entry): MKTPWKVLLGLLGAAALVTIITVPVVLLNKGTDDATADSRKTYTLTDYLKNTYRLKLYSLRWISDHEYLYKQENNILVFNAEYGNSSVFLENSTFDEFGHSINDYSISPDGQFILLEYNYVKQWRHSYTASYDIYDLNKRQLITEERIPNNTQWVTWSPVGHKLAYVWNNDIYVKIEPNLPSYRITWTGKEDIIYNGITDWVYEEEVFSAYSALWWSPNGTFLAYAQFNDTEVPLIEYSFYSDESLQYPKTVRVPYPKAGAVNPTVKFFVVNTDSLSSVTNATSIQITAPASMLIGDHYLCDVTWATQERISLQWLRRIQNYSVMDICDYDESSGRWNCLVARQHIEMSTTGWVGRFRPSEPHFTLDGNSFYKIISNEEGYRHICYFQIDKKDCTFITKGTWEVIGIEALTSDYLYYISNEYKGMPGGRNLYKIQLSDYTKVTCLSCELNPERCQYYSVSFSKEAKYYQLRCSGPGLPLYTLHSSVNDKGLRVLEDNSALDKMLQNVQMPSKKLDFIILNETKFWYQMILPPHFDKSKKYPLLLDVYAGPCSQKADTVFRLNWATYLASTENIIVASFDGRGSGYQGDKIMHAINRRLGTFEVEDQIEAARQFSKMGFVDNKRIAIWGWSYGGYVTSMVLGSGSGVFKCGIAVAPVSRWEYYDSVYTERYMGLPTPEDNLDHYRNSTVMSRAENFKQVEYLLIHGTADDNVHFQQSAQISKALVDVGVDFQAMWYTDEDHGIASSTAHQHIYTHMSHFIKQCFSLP
smiles,measurement,setting,value
"CC#CCn1c(N2CCC[C@@H](N)C2)nc2c1c(=O)n(Cc1nccnc1C#N)c(=O)n2C [Compound I-3, 1-[(3-cyano-pyrazine-2-yl)methyl]-3-methyl-7-(2-butyne-1-yl)-8-[(R)-3-amino-piperidine-1-yl]-xanthine]",pIC50,"[1]; DPP-IV, Table 1, read-out: IC50",10.10
same,pIC50,"[1]; Table 2, read-out: DPP4 IC50",10.10
same,DPP-IV activity compared with linagliptin,[1]; in words,better activity than linagliptin
same,pIC50,[2],< 4.00
same,Selectivity (DPP9 column),[2]; DPP9 versus DPP4,> 1250000
same,inhibition effect to DPP9,[2]; in words,no inhibition effect
same,Blood glucose concentration 0 min,"normal mice (C57BL/6J); normal mice C57BL/6J, drug at -60 min (0.6 mg/ml, 5 ml/kg), 5 g/kg glucose at 0 min",8.88* mmol/L
same,hypoglycemic effect,"normal mice (C57BL/6J); normal mice, in words",good hypoglycemic effect
same,Blood glucose concentration 15 min,"normal mice (C57BL/6J); normal mice, 15 min after glucose",14.6*** mmol/L
same,Blood glucose concentration 30 min,"normal mice (C57BL/6J); normal mice, 30 min after glucose",11.0*** mmol/L
same,Blood glucose concentration 45 min,"normal mice (C57BL/6J); normal mice, 45 min after glucose",9.23*** mmol/L
same,Blood glucose concentration 60 min,"normal mice (C57BL/6J); normal mice, 60 min after glucose",9.82*** mmol/L
same,Blood glucose concentration 120 min,"normal mice (C57BL/6J); normal mice, 120 min after glucose",7.58 mmol/L
same,AUC0-120 min,"normal mice (C57BL/6J); normal mice, blood glucose AUC",1185***
same,hypoglycemic effect,"[3]; Table 5 mice (diabetic), in words",good hypoglycemic effect
same,Blood glucose concentration 0 min,"[3]; diabetic mice B6.BKS(D)-Leprdb/JNju, drug at -60 min (0.6 mg/ml, 5 ml/kg), 2 g/kg glucose at 0 min",11.84 mmol/L
same,Blood glucose concentration 15 min,"[3]; diabetic mice, 15 min after glucose",32.23 mmol/L
same,Blood glucose concentration 30 min,"[3]; diabetic mice, 30 min after glucose",22.80* mmol/L
same,Blood glucose concentration 45 min,"[3]; diabetic mice, 45 min after glucose",15.70*** mmol/L
same,Blood glucose concentration 60 min,"[3]; diabetic mice, 60 min after glucose",13.80*** mmol/L
same,Blood glucose concentration 120 min,"[3]; diabetic mice, 120 min after glucose",8.75** mmol/L
same,AUC0-120 min,"[3]; diabetic mice, blood glucose AUC",1930**
same,inhibition rate to hERG,hERG potassium channel; 1 μM concentration,0%
same,pIC50,"hERG potassium channel; manual patch clamp, CHO cells",4.10
